Measurements taken from US9505742B2, “3,4-dihydro-2H-isoquinoline-1-one and 2,3-dihydro-isoindol-1-one compounds” (Hoffmann-La Roche Inc., priority 2013, dated 2016).

Tests used:
human CYP11B2 = molecular target: T1, human CYP11B2 (Homo sapiens, UniProt P19099); assay: G-402 cellular enzyme assay, human CYP11B2 (aldosterone release, HTRF); assay type: cell-based; conditions: G-402 cells expressing human CYP11B2; 1 μM Deoxycorticosterone
T1 construct: The expression plasmids contains the ORF for either human/cyno CYP11B1 or CYP11B2; expressed in transfected cells
T1 sequence (P19099 25-503): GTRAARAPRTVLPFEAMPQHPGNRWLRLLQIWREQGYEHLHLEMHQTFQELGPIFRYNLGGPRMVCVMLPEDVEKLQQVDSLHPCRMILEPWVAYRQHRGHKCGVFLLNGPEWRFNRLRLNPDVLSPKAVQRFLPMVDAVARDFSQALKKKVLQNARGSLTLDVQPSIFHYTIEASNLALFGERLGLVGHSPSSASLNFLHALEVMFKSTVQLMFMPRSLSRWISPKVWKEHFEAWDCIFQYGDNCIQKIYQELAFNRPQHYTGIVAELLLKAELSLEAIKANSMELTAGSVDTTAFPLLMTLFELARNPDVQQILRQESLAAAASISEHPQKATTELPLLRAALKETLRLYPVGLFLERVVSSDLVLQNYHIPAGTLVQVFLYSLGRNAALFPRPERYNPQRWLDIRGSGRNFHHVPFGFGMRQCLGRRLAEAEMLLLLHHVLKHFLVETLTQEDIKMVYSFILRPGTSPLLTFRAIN
From the text: (§1) Herein we identified the use of the G-402 cell line as a host cell to ectopically express (transiently or stably) enzymes of the CYP11 family. Specifically we developed stable G-402 cells expressing ectopically human CYP11B1, human CYP11B2, human CYP11A1, cynmolgus CYP11B1 or cynomolgus CYP11B2 enzyme activity. Importantly the identified cell line G-402 expresses co-factors (adrenodoxin and adrenodoxin reductase) important for the activity of the CYP11 family and no relevant enzyme activity of the CYP11 family (in comparison to H295R cells) was detected in these cells. Therefore the G-402 cell line is uniquely suited as a host cell for the ectopic expression of enzymes from the CYP11 family. G-402 cells can be obtained from ATCC (CRL-1440) and were originally derived from a renal leiomyoblastoma.
(§2) The expression plasmids contains the ORF for either human/cyno CYP11B1 or CYP11B2 under the control of a suitable promoter (CMV-promoter) and a suitable resistance marker (neomycin). Using standard techniques the expression plasmid is transfected into G-402 cells and these cells are then selected for expressing the given resistance markers. Individual cell-clones are then selected and assessed for displaying the desired enzymatic activity using 11-Deoxycorticosterone (Cyp11B2) or 11-Deoxycortisol (Cyp11B) as a substrate.
(§3) G-402 cells expressing CYP11 constructs were established as described above and maintained in McCoy's 5a Medium Modified, ATCC Catalog No. 30-2007 containing 10% FCS and 400 μg/ml G418 (Geneticin) at 37° C. under an atmosphere of 5% CO2/95% air. Cellular enzyme assays were performed in DMEM/F12 medium containing 2.5% charcoal treated FCS and appropriate concentration of substrate (0.3-10 uM 11-Deoxycorticosterone, 11-Deoxycortisol or Corticosterone). For assaying enzymatic activity, cells were plated onto 96 well plates and incubated for 16 h. An aliquot of the supernatant is then transferred and analyzed for the concentration of the expected product (Aldosterone for CYP11B2; Cortisol for CYP11B1). The concentrations of these steroids can be determined using HTRF assays from CisBio analyzing either Aldosterone or Cortisol.
(§4) Inhibition of the release of produced steroids can be used as a measure of the respective enzyme inhibition by test compounds added during the cellular enzyme assay. The dose dependent inhibition of enzymatic activity by a compound is calculated by means of plotting added inhibitor concentrations (x-axes) vs. measured steroid/product level (y-axes). The inhibition is then calculated by fitting the following 4-parameter sigmoidal function (Morgan-Mercer-Flodin (MMF) model) to the raw data points using the least squares method:
(§5) [formula] wherein, A is the maximum y value, B is the EC50 factor determined using XLFit, C is the minimum y value and D is the slope value.
(§6) EC50 values for compounds claimed herein were tested with the G402-based assay system described. Cyp11B2 enzyme activity was tested in presence of 1 μM Deoxycorticosterone and variable amounts of inhibitors; Cyp11B1 enzyme activity was tested in presence of 1 μM Deoxycortisol and variable amounts of inhibitors.

human CYP11B1 = molecular target: T2, human CYP11B1 (Homo sapiens, UniProt P15538); assay: G-402 cellular enzyme assay, human CYP11B1 (cortisol release, HTRF); assay type: cell-based; conditions: G-402 cells expressing human CYP11B1; 1 μM Deoxycortisol
T2 construct: The expression plasmids contains the ORF for either human/cyno CYP11B1 or CYP11B2; expressed in transfected cells
T2 sequence (P15538 25-503): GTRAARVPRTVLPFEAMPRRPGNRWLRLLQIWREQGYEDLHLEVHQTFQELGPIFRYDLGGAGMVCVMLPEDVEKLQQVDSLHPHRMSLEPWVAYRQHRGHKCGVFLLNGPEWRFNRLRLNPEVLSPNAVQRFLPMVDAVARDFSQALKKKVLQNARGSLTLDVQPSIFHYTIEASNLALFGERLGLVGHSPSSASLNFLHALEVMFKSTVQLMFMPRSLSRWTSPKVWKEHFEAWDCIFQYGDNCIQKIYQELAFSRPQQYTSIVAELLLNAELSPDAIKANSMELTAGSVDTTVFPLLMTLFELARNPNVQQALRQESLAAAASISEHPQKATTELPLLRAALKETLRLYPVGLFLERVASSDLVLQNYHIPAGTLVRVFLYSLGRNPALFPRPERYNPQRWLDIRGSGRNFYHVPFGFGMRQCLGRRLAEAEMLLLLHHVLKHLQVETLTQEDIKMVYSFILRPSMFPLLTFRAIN
From the text: as §1, §2, §3, §4, §5, §6

SMILES | EC50 (human CYP11B2) | EC50 (human CYP11B1)
CCS(=O)(=O)N1CCC(c2cncc(N3C(=O)c4ccc(Cl)cc4[C@H]3C)c2)CC1 (single isomer, unassigned) [Example 24, (+)-(3R or 3S)-5-chloro-2-[5-(1-ethylsulfonylpiperidin-4-yl)pyridin-3-yl]-3-methyl-3H-isoindol-1-one] | 2 nM | 433 nM
CCS(=O)(=O)N1CCC(c2cncc(N3C(=O)c4ccc(Cl)cc4[C@@H]3C)c2)CC1 (single isomer, unassigned) [Example 25, (−)-(3S or 3R)-5-chloro-2-[5-(1-ethylsulfonylpiperidin-4-yl)pyridin-3-yl]-3-methyl-3H-isoindol-1-one] | 2 nM | 107 nM
CC(C)S(=O)(=O)N1CCC(c2cncc(N3C(=O)c4ccc(Cl)cc4[C@H]3C)c2)CC1 (single isomer, unassigned) [Example 26, (+)-(3R or 3S)-5-chloro-3-methyl-2-[5-(1-propan-2-ylsulfonylpiperidin-4-yl)pyridin-3-yl]-3H-isoindol-1-one] | 11 nM | 1620 nM
CC(C)S(=O)(=O)N1CCC(c2cncc(N3C(=O)c4ccc(Cl)cc4[C@@H]3C)c2)CC1 (single isomer, unassigned) [Example 27, (−)-(3S or 3R)-5-chloro-3-methyl-2-[5-(1-propan-2-ylsulfonylpiperidin-4-yl)pyridin-3-yl]-3H-isoindol-1-one] | 1 nM | 523 nM
Cc1ccncc1C(=O)N1CCC(c2cncc(N3C(=O)c4ccc(Cl)cc4[C@H]3C)c2)CC1 (single isomer, unassigned) [Example 28, (+)-(3R or 3S)-5-chloro-3-methyl-2-[5-[1-(4-methylpyridine-3-carbonyl)piperidin-4-yl]pyridin-3-yl]-3H-isoindol-1-one] | 4 nM | 167 nM
Cc1ccncc1C(=O)N1CCC(c2cncc(N3C(=O)c4ccc(Cl)cc4[C@@H]3C)c2)CC1 (single isomer, unassigned) [Example 29, (−)-(3S or 3R)-5-chloro-3-methyl-2-[5-[1-(4-methylpyridine-3-carbonyl)piperidin-4-yl]pyridin-3-yl]-3H-isoindol-1-one] | 9 nM | 117 nM
CC1(C)c2cc(Cl)ccc2C(=O)N1c1cncc(C2CCCN(S(C)(=O)=O)C2)c1 (single isomer, unassigned; (+)) [Example 5, (+)-5-chloro-3,3-dimethyl-2-[5-[(3R or 3S)-1-methylsulfonylpiperidin-3-yl]pyridin-3-yl]isoindol-1-one] | 5 nM | 213 nM
CCCS(=O)(=O)N1CCC(c2cncc(N3C(=O)c4ccc(Cl)cc4C3(C)C)c2)C1 (single isomer, unassigned; (+)) [Example 8, (+)-5-chloro-3,3-dimethyl-2-[5-[(3R or 3S)-1-propylsulfonylpyrrolidin-3-yl]pyridin-3-yl]isoindol-1-one] | 4 nM | 109 nM
CC(C)S(=O)(=O)N1CCC(c2cncc(N3C(=O)c4ccc(Cl)cc4C3(C)C)c2)C1 (single isomer, unassigned; (+)) [Example 10, (+)-5-chloro-3,3-dimethyl-2-[5-[(3R or 3S)-1-propan-2-ylsulfonylpyrrolidin-3-yl]pyridin-3-yl]isoindol-1-one] | 2 nM | 93 nM
CC1(C)c2cc(Cl)ccc2C(=O)N1c1cncc(C2CCN(S(=O)(=O)C3CC3)C2)c1 (single isomer, unassigned; (+)) [Example 12, (+)-5-chloro-2-[5-[(3R or 3S)-1-cyclopropylsulfonylpyrrolidin-3-yl]pyridin-3-yl]-3,3-dimethylisoindol-1-one] | 2 nM | 75 nM
CC1(C)c2cc(Cl)ccc2C(=O)N1c1cncc(C2CCCN(S(C)(=O)=O)C2)c1 (single isomer, unassigned; (-)) [Example 6, (−)-5-chloro-3,3-dimethyl-2-[5-[(3S or 3R)-1-methylsulfonylpiperidin-3-yl]pyridin-3-yl]isoindol-1-one] | 15 nM | 332 nM
CCCS(=O)(=O)N1CCC(c2cncc(N3C(=O)c4ccc(Cl)cc4C3(C)C)c2)C1 (single isomer, unassigned; (-)) [Example 9, (−)-5-chloro-3,3-dimethyl-2-[5-[(3S or 3R)-1-propylsulfonylpyrrolidin-3-yl]pyridin-3-yl]isoindol-1-one] | 14 nM | 800 nM
CC(C)S(=O)(=O)N1CCC(c2cncc(N3C(=O)c4ccc(Cl)cc4C3(C)C)c2)C1 (single isomer, unassigned; (-)) [Example 11, (−)-5-chloro-3,3-dimethyl-2-[5-[(3S or 3R)-1-propan-2-ylsulfonylpyrrolidin-3-yl]pyridin-3-yl]isoindol-1-one] | 7 nM | 601 nM
CC1(C)c2cc(Cl)ccc2C(=O)N1c1cncc(C2CCN(S(=O)(=O)C3CC3)C2)c1 (single isomer, unassigned; (-)) [Example 13, (−)-5-chloro-2-[5-[(3S or 3R)-1-cyclopropylsulfonylpyrrolidin-3-yl]pyridin-3-yl]-3,3-dimethylisoindol-1-one] | 19 nM | 957 nM
CCC(=O)N1CCC(c2cncc(N3C(=O)c4ccc(Cl)cc4C3(C)C)c2)CC1 [Example 1, 5-Chloro-3,3-dimethyl-2-[5-(1-propanoylpiperidin-4-yl)pyridin-3-yl]isoindol-1-one] | 5 nM | 238 nM
CCS(=O)(=O)N1CCC(c2cncc(N3C(=O)c4ccc(Cl)cc4C3(C)C)c2)CC1 [Example 2, 5-Chloro-2-[5-(1-ethylsulfonylpiperidin-4-yl)pyridin-3-yl]-3,3-dimethylisoindol-1-one] | 2 nM | 290 nM
CC1(C)c2cc(Cl)ccc2C(=O)N1c1cncc(C2CCN(S(C)(=O)=O)CC2)c1 [Example 3, 5-Chloro-3,3-dimethyl-2-[5-(1-methylsulfonylpiperidin-4-yl)pyridin-3-yl]isoindol-1-one] | 2 nM | 53 nM
CCS(=O)(=O)N1CCCC(c2cncc(N3C(=O)c4ccc(Cl)cc4C3(C)C)c2)C1 (centres unmarked) [Example 4, 5-Chloro-2-[5-(1-ethylsulfonylpiperidin-3-yl)pyridin-3-yl]-3,3-dimethylisoindol-1-one] | 6 nM | 605 nM
CCS(=O)(=O)N1CCC(c2cncc(N3C(=O)c4ccc(Cl)cc4C3(C)C)c2)C1 (centres unmarked) [Example 7, 5-Chloro-2-[5-(1-ethylsulfonylpyrrolidin-3-yl)pyridin-3-yl]-3,3-dimethylisoindol-1-one] | 2 nM | 149 nM
